# According to PubChem BioAssay (NCI):
#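 At the GI50, growth is halved. TGI is the concentration that stops growth completely.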
# What was measured:
# Experiment in all cases: NCI-60 cell line screen, 384-well format
# DU-145 prostate = test system: DU-145 prostate
# CAKI-1 renal = test system: CAKI-1 renal
# MOLT-4 leukemia = test system: MOLT-4 leukemia
# SF-295 CNS = test system: SF-295 CNS
# NCI-H460 NSCLC = test system: NCI-H460 NSCLC
# UACC-62 melanoma = test system: UACC-62 melanoma
# SNB-75 CNS = test system: SNB-75 CNS
# RPMI-8226 leukemia = test system: RPMI-8226 leukemia
# SW-620 colon = test system: SW-620 colon
# RXF 393 renal = test system: RXF 393 renal
# BT-549 breast = test system: BT-549 breast
# TK-10 renal = test system: TK-10 renal
# LOX IMVI melanoma = test system: LOX IMVI melanoma
# SF-539 CNS = test system: SF-539 CNS
# SNB-19 CNS = test system: SNB-19 CNS
# A549 NSCLC = test system: A549 NSCLC
# OVCAR-4 ovarian = test system: OVCAR-4 ovarian
# OVCAR-3 ovarian = test system: OVCAR-3 ovarian
# SK-OV-3 ovarian = test system: SK-OV-3 ovarian
# ACHN renal = test system: ACHN renal
# NCI-H226 lung = test system: NCI-H226 lung
# MDA-MB-468 breast = test system: MDA-MB-468 breast
# SK-MEL-28 melanoma = test system: SK-MEL-28 melanoma
# SF-268 CNS = test system: SF-268 CNS
# CCRF-CEM leukemia = test system: CCRF-CEM leukemia
# HCT-116 colon = test system: HCT-116 colon
# HOP-62 NSCLC = test system: HOP-62 NSCLC
# SK-MEL-5 melanoma = test system: SK-MEL-5 melanoma
# HT29 colon = test system: HT29 colon
# EKVX NSCLC = test system: EKVX NSCLC
# T-47D breast = test system: T-47D breast
# 786-0 renal = test system: 786-0 renal
# HL-60(TB) leukemia = test system: HL-60(TB) leukemia
# NCI/ADR-RES ovarian = test system: NCI/ADR-RES ovarian
# MDA-MB-435 melanoma = test system: MDA-MB-435 melanoma
# HOP-92 NSCLC = test system: HOP-92 NSCLC
# COLO 205 colon = test system: COLO 205 colon
# MALME-3M melanoma = test system: MALME-3M melanoma
# UO-31 renal = test system: UO-31 renal
# OVCAR-8 ovarian = test system: OVCAR-8 ovarian
# U251 glioblastoma = test system: U251 glioblastoma
# NCI-H522 lung = test system: NCI-H522 lung
# SN12C renal = test system: SN12C renal
# HS 578T breast = test system: HS 578T breast
# IGROV1 ovarian = test system: IGROV1 ovarian
# OVCAR-5 ovarian = test system: OVCAR-5 ovarian
# K-562 leukemia = test system: K-562 leukemia
# MCF7 breast = test system: MCF7 breast
# M14 melanoma = test system: M14 melanoma
# PC-3 prostate = test system: PC-3 prostate
# HCT-15 colon = test system: HCT-15 colon
# HCC-2998 colon = test system: HCC-2998 colon
# MDA-MB-231 breast = test system: MDA-MB-231 breast
# SK-MEL-2 melanoma = test system: SK-MEL-2 melanoma
# A498 renal = test system: A498 renal
# NCI-H23 lung = test system: NCI-H23 lung
# KM12 colon = test system: KM12 colon
# NCI-H322M lung = test system: NCI-H322M lung
compound,measurement,setting,value
Cn1nccc1Nc1nccc(-c2cc3c(s2)C(C)(C)N(CCN2CCOCC2)C3=O)n1,GI50,DU-145 prostate,23.6 µM
same,TGI,DU-145 prostate,> 100 µM
same,GI50,CAKI-1 renal,3.31 µM
same,TGI,CAKI-1 renal,> 100 µM
same,GI50,MOLT-4 leukemia,46 µM
same,TGI,MOLT-4 leukemia,> 100 µM
same,GI50,SF-295 CNS,> 100 µM
same,TGI,SF-295 CNS,> 100 µM
same,GI50,NCI-H460 NSCLC,4.26 µM
same,TGI,NCI-H460 NSCLC,> 100 µM
same,GI50,UACC-62 melanoma,0.138 µM
same,TGI,UACC-62 melanoma,1.76 µM
same,GI50,SNB-75 CNS,> 100 µM
same,TGI,SNB-75 CNS,> 100 µM
same,GI50,RPMI-8226 leukemia,2.23 µM
same,TGI,RPMI-8226 leukemia,8.87 µM
same,GI50,SW-620 colon,0.756 µM
same,TGI,SW-620 colon,> 100 µM
same,GI50,RXF 393 renal,> 100 µM
same,TGI,RXF 393 renal,> 100 µM
same,GI50,BT-549 breast,13.8 µM
same,TGI,BT-549 breast,> 100 µM
same,GI50,TK-10 renal,3.46 µM
same,TGI,TK-10 renal,> 100 µM
same,GI50,LOX IMVI melanoma,0.345 µM
same,TGI,LOX IMVI melanoma,1.55 µM
same,GI50,SF-539 CNS,28.2 µM
same,TGI,SF-539 CNS,> 100 µM
same,GI50,SNB-19 CNS,64.7 µM
same,TGI,SNB-19 CNS,> 100 µM
same,GI50,A549 NSCLC,2.45 µM
same,TGI,A549 NSCLC,> 100 µM
same,GI50,OVCAR-4 ovarian,> 100 µM
same,TGI,OVCAR-4 ovarian,> 100 µM
same,GI50,OVCAR-3 ovarian,51.4 µM
same,TGI,OVCAR-3 ovarian,> 100 µM
same,GI50,SK-OV-3 ovarian,25.2 µM
same,TGI,SK-OV-3 ovarian,> 100 µM
same,GI50,ACHN renal,16.9 µM
same,TGI,ACHN renal,> 100 µM
same,GI50,NCI-H226 lung,14.2 µM
same,TGI,NCI-H226 lung,> 100 µM
same,GI50,MDA-MB-468 breast,19.3 µM
same,TGI,MDA-MB-468 breast,89 µM
same,GI50,SK-MEL-28 melanoma,0.177 µM
same,TGI,SK-MEL-28 melanoma,0.797 µM
same,GI50,SF-268 CNS,50.9 µM
same,TGI,SF-268 CNS,> 100 µM
same,GI50,CCRF-CEM leukemia,34.2 µM
same,TGI,CCRF-CEM leukemia,> 100 µM
same,GI50,HCT-116 colon,0.404 µM
same,TGI,HCT-116 colon,> 100 µM
same,GI50,HOP-62 NSCLC,8.17 µM
same,TGI,HOP-62 NSCLC,> 100 µM
same,GI50,SK-MEL-5 melanoma,0.619 µM
same,TGI,SK-MEL-5 melanoma,> 100 µM
same,GI50,HT29 colon,0.618 µM
same,TGI,HT29 colon,> 100 µM
same,GI50,EKVX NSCLC,> 100 µM
same,TGI,EKVX NSCLC,> 100 µM
same,GI50,T-47D breast,> 100 µM
same,TGI,T-47D breast,> 100 µM
same,GI50,786-0 renal,90.9 µM
same,TGI,786-0 renal,> 100 µM
same,GI50,HL-60(TB) leukemia,0.264 µM
same,TGI,HL-60(TB) leukemia,10.1 µM
same,GI50,NCI/ADR-RES ovarian,> 100 µM
same,TGI,NCI/ADR-RES ovarian,> 100 µM
same,GI50,MDA-MB-435 melanoma,0.402 µM
same,TGI,MDA-MB-435 melanoma,50.9 µM
same,GI50,HOP-92 NSCLC,4.27 µM
same,TGI,HOP-92 NSCLC,> 100 µM
same,GI50,COLO 205 colon,0.194 µM
same,TGI,COLO 205 colon,5.35 µM
same,GI50,MALME-3M melanoma,0.0557 µM
same,TGI,MALME-3M melanoma,0.296 µM
same,GI50,UO-31 renal,9.2 µM
same,TGI,UO-31 renal,> 100 µM
same,GI50,OVCAR-8 ovarian,34.8 µM
same,TGI,OVCAR-8 ovarian,> 100 µM
same,GI50,U251 glioblastoma,25.9 µM
same,TGI,U251 glioblastoma,> 100 µM
same,GI50,NCI-H522 lung,1.65 µM
same,TGI,NCI-H522 lung,20.8 µM
same,GI50,SN12C renal,39.2 µM
same,TGI,SN12C renal,> 100 µM
same,GI50,HS 578T breast,49.4 µM
same,TGI,HS 578T breast,> 100 µM
same,GI50,IGROV1 ovarian,3.52 µM
same,TGI,IGROV1 ovarian,> 100 µM
same,GI50,OVCAR-5 ovarian,0.989 µM
same,TGI,OVCAR-5 ovarian,> 100 µM
same,GI50,K-562 leukemia,4.74 µM
same,TGI,K-562 leukemia,> 100 µM
same,GI50,MCF7 breast,21.2 µM
same,TGI,MCF7 breast,> 100 µM
same,GI50,M14 melanoma,0.157 µM
same,TGI,M14 melanoma,0.905 µM
same,GI50,PC-3 prostate,55.4 µM
same,TGI,PC-3 prostate,> 100 µM
same,GI50,HCT-15 colon,23.1 µM
same,TGI,HCT-15 colon,> 100 µM
same,GI50,HCC-2998 colon,0.308 µM
same,TGI,HCC-2998 colon,17.1 µM
same,GI50,MDA-MB-231 breast,3.5 µM
same,TGI,MDA-MB-231 breast,> 100 µM
same,GI50,SK-MEL-2 melanoma,0.372 µM
same,TGI,SK-MEL-2 melanoma,1.45 µM
same,GI50,A498 renal,5.15 µM
same,TGI,A498 renal,> 100 µM
same,GI50,NCI-H23 lung,0.301 µM
same,TGI,NCI-H23 lung,9.1 µM
same,GI50,KM12 colon,1.69 µM
same,TGI,KM12 colon,> 100 µM
same,GI50,NCI-H322M lung,7.59 µM
same,TGI,NCI-H322M lung,> 100 µM
